Laboratory results: patent US20040171795A1, “Novel peptides” (priority 2000, published 2004)

Tests used:
[1] = Affinity for phosphatidyl serine (EIA, inhibition of human Factor VIII binding); settings: class of IC50 for inhibiting human Factor VIII binding, 5% BSA
Procedure: The specific affinity of the peptide for phosphatidyl serine was evaluated by measuring activity of the peptide for inhibiting the binding of the human Factor VIII to phosphatidyl serine by using human Factor VIII which is known to bind to phosphatidyl serine but not to phosphatidyl choline in the presence of serum albumin. To be more specific, 100 μL of ethanol solution containing 10 μg/mL of phospholipids at a phosphatidyl serine (manufactured by SIGMA): phosphatidyl choline (manufactured by SIGMA) ratio of 3:7 was added to the wells of a 96 well plate (Immulon I, manufactured by Dynatech), and exsiccated by using a centrifugal evaporator (EC-95C, manufactured by Sakuma Seisakusho) at 40° C. for 40 minutes. 200 μL each of TBS (10 mM Tris-HCl (pH 7.4) containing 1% bovine serum albumin (BSA Fraction V, hereinafter referred to as BSA, manufactured by Seikagaku Corporation) and 0.9% (W/V) NaCl solution were added to each well, and the wells were blocked by allowing the plate to stand at 37° C. for 2.5 hours. After washing the plate with water, 100 μL of TBS solution supplemented with 5% BSA mixed with human Factor VIII (manufactured by American Diagnostica) at a final concentration 1 μg/mL and the peptide of predetermined dose prepared in Example 1 was added to each well, and the reaction was allowed to take place at 4° C. for 24 hours.
After the completion of the reaction, the human Factor VIII that became bound to the phosphatidyl serine was measured by enzyme immunoassay (EIA) in accordance with the general procedure described in a book (“Enzyme Immunoassay (3rd ed.)”, Eiji Ishikawa et al., Igaku-Shoin, 1987). To be more specific, the measurement was conducted by using anti-human Factor VIII mouse monoclonal antibody (ESH8, manufactured by American Diagnostica) for the primary antibody, horseradish peroxidase-labeled anti-mouse IgG antibody (P0260, manufactured by Daco) for the secondary antibody, and tetramethylbenzidine for the chromogenic substrate, and measuring the absorption at a wavelength of 450 nm by using a reference wavelength of 630 nm on a spectrophotometer (NJ-2100, manufactured by Intermed).
Intensity of the affinity of the peptide for the phosphatidyl serine was evaluated by using the value obtained by subtracting the absorption of the well having no human Factor VIII added thereto from the absorption of the well having only the human Factor VIII added thereto as the control value (100%), and designating the peptide concentration at which the value 0.5 was obtained when the value obtained by subtracting the absorption of the well having only the peptide added thereto from the absorption of the well having a mixture of the human Factor VIII and the peptide added thereto were divided by the control value as the IC50 value, and evaluating the intensity to be ++ when the IC50 value was up to 1 μM, and +when the intensity was more than 1 μM but not more than 10 μM. It is to be noted that the specific affinity was evaluated to be none when the intensity was 10 μM or more.

[2] = test system: Vero cell; assay: Introduction of FITC-labeled oligonucleotide, fluorescence microscopy; type: cell-based, monkey; settings: 300 nM FITC-labeled oligonucleotide, 2.5 μM peptide
Procedure: Vero cell was inoculated in the well of a chamber slide (Lab-Tek II chamber slide, size 4 well, manufactured by NALGEN NUNC) at a rate of 1×10^5 cells/well, and the cells were cultivated in DMEM supplemented with 10% FBS in 5% CO2 atmosphere at 37° C. for 24 hours. After removing the medium, opti-MEM containing 300 nM FITC-labeled oligonucleotide prepared in Example 6 and 2.5 μM of the peptide of SEQ ID NO:1 prepared in Example 1 was added, and the cultivation was continued for 4 hours. The medium was replaced with DMEM supplemented with 10% FBS, and the cultivation was continued in 5% CO2 atmosphere at 37° C. for another 24 hours. After washing the cell with PBS, the cells were fixed by using PBS containing 4% paraformaldehyde, and accumulation of FITC-labeled oligonucleotide in the cell nucleus was confirmed by using a fluorescence microscope (AH-3, manufactured by Olympus). […] On the other hand, accumulation of FITC-labeled oligonucleotide in the cell was not confirmed in the absence of the peptide of SEQ ID NO:1.

SEQ ID NO: 1: peptide having the amino acid sequence of SEQ ID NO:1, made by solid phase synthesis (TRYLRIHPRSWVHQIALRLRYLRIHPRSWVHQIALRS; synthetic peptide using an automatic peptide synthesizer)
IC50 [1]: < 1 µM | accumulation of FITC-labeled oligonucleotide in the cell nucleus [2]: FITC-labeled oligonucleotide was accumulated in the cell nucleus
